Measurements: PubChem BioAssay AID2060503 (Molecular Pharmacology Branch, DTP, NCI, 2025)

Test system: 817829-284-R-J1-PDC complex spheroids, viability
Assay: Anticancer human tumor 817829-284-R-J1-PDC patient-derived colon adenocarcinoma cell line growth inhibition [GQUAD]
Settings: for IC50: curve of first compound; for viability, T/C: stronger effect = lower value; active = viability on the fitted dose curve at most 10% of control; inactive = the rest
Summary of the method: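 Viability of tumor cells grown as complex spheroids with endothelial and stromal cells, exposed to drug combinations. Top concentration at or near clinical Cmax (else 10 microM), diluted in half-log increments.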

[1] = second compound 0.0316 µM, first compound 0.0316 µM
[2] = second compound 0.0316 µM, first compound 0.1 µM
[3] = second compound 0.0316 µM, first compound 0.316 µM
[4] = second compound 0.0316 µM, first compound 1 µM
[5] = second compound 0.0316 µM, first compound 3.16 µM
[6] = second compound 0.0316 µM, first compound 10 µM
[7] = second compound 0.1 µM, first compound 0.0316 µM
[8] = second compound 0.1 µM, first compound 0.1 µM
[9] = second compound 0.1 µM, first compound 0.316 µM
[10] = second compound 0.1 µM, first compound 1 µM
[11] = second compound 0.1 µM, first compound 3.16 µM
[12] = second compound 0.1 µM, first compound 10 µM
[13] = second compound 0.316 µM, first compound 0.0316 µM
[14] = second compound 0.316 µM, first compound 0.1 µM
[15] = second compound 0.316 µM, first compound 0.316 µM
[16] = second compound 0.316 µM, first compound 1 µM
[17] = second compound 0.316 µM, first compound 3.16 µM
[18] = second compound 0.316 µM, first compound 10 µM
[19] = second compound 1 µM, first compound 0.0316 µM
[20] = second compound 1 µM, first compound 0.1 µM
[21] = second compound 1 µM, first compound 0.316 µM
[22] = second compound 1 µM, first compound 1 µM
[23] = second compound 1 µM, first compound 3.16 µM
[24] = second compound 1 µM, first compound 10 µM
[25] = second compound 3.16 µM, first compound 0.0316 µM
[26] = second compound 3.16 µM, first compound 0.1 µM
[27] = second compound 3.16 µM, first compound 0.316 µM
[28] = second compound 3.16 µM, first compound 1 µM
[29] = second compound 3.16 µM, first compound 3.16 µM
[30] = second compound 3.16 µM, first compound 10 µM
[31] = second compound 10 µM, first compound 0.0316 µM
[32] = second compound 10 µM, first compound 0.1 µM
[33] = second compound 10 µM, first compound 0.316 µM
[34] = second compound 10 µM, first compound 1 µM
[35] = second compound 10 µM, first compound 3.16 µM
[36] = second compound 10 µM, first compound 10 µM
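Also: spheroids exposed to agents for 7 days before readout.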
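For viability, T/C in this document: percent viability relative to DMSO vehicle control taken as 100%.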

CCCS(=O)(=O)Nc1ccc(F)c(C(=O)c2c[nH]c3ncc(-c4ccc(Cl)cc4)cc23)c1F + CN(C)c1ccc(Nc2c3ccc(NC(=O)CCN4CCCC4)cc3nc3cc(NC(=O)CCN4CCCC4)ccc23)cc1
active: viability, T/C [36] 7.36%
5750 nM: IC50 (second compound 0.0316 µM)
5680 nM: IC50 (second compound 1 µM)
5660 nM: IC50 (second compound 0.1 µM)
5880 nM: IC50 (second compound 0.316 µM)
inactive: viability, T/C [1] 113% | viability, T/C [2] 112% | viability, T/C [3] 107% | viability, T/C [4] 98.5% | viability, T/C [5] 80.8% | viability, T/C [6] 22.4% | viability, T/C [7] 98.9% | viability, T/C [8] 116% | viability, T/C [9] 100% | viability, T/C [10] 102% | viability, T/C [11] 79.1% | viability, T/C [12] 21.5% | viability, T/C [13] 107% | viability, T/C [14] 115% | viability, T/C [15] 97.7% | viability, T/C [16] 111% | viability, T/C [17] 84% | viability, T/C [18] 20.9% | viability, T/C [19] 109% | viability, T/C [20] 110% | viability, T/C [21] 104% | viability, T/C [22] 98% | viability, T/C [23] 79.8% | viability, T/C [24] 22.2% | viability, T/C [25] 106% | viability, T/C [26] 112% | viability, T/C [27] 95.6% | viability, T/C [28] 96.1% | viability, T/C [29] 76.3% | viability, T/C [30] 19.1% | viability, T/C [31] 94.4% | viability, T/C [32] 87.3% | viability, T/C [33] 63.2% | viability, T/C [34] 66.6% | viability, T/C [35] 32.8%
1470 nM: IC50 (second compound 10 µM)
5320 nM: IC50 (second compound 3.16 µM)

Cc1[nH]c2ccccc2c1CCNCc1ccc(/C=C/C(=O)NO)cc1 + CN(C)c1ccc(Nc2c3ccc(NC(=O)CCN4CCCC4)cc3nc3cc(NC(=O)CCN4CCCC4)ccc23)cc1
active: viability, T/C (second compound 0.0316 µM, first compound 0.0999 µM) 3.89% | viability, T/C [3] 0.19% | viability, T/C (second compound 0.1 µM, first compound 0.0999 µM) 3.79% | viability, T/C [9] 0.12% | viability, T/C (second compound 0.316 µM, first compound 0.0999 µM) 3.89% | viability, T/C [15] 0.11% | viability, T/C (second compound 1 µM, first compound 0.0999 µM) 4.37% | viability, T/C [21] 0.14% | viability, T/C (second compound 3.16 µM, first compound 0.0999 µM) 5.12% | viability, T/C [27] 0.15% | viability, T/C (second compound 10 µM, first compound 0.0999 µM) 1.95% | viability, T/C [33] 0.22%
52.1 nM: IC50 (second compound 0.0316 µM)
45.7 nM: IC50 (second compound 0.1 µM)
19.1 nM: IC50 (second compound 10 µM)
inactive: viability, T/C (second compound 0.0316 µM, first compound 0.000999 µM) 108% | viability, T/C (second compound 0.0316 µM, first compound 0.00316 µM) 99.3% | viability, T/C (second compound 0.0316 µM, first compound 0.00999 µM) 126% | viability, T/C [1] 86.1% | viability, T/C (second compound 0.1 µM, first compound 0.000999 µM) 89.8% | viability, T/C (second compound 0.1 µM, first compound 0.00316 µM) 110% | viability, T/C (second compound 0.1 µM, first compound 0.00999 µM) 109% | viability, T/C [7] 72.3% | viability, T/C (second compound 0.316 µM, first compound 0.000999 µM) 94.1% | viability, T/C (second compound 0.316 µM, first compound 0.00316 µM) 115% | viability, T/C (second compound 0.316 µM, first compound 0.00999 µM) 117% | viability, T/C [13] 75.3% | viability, T/C (second compound 1 µM, first compound 0.000999 µM) 104% | viability, T/C (second compound 1 µM, first compound 0.00316 µM) 100% | viability, T/C (second compound 1 µM, first compound 0.00999 µM) 126% | viability, T/C [19] 88.4% | viability, T/C (second compound 3.16 µM, first compound 0.000999 µM) 96.1% | viability, T/C (second compound 3.16 µM, first compound 0.00316 µM) 99.2% | viability, T/C (second compound 3.16 µM, first compound 0.00999 µM) 119% | viability, T/C [25] 76.1% | viability, T/C (second compound 10 µM, first compound 0.000999 µM) 99.2% | viability, T/C (second compound 10 µM, first compound 0.00316 µM) 113% | viability, T/C (second compound 10 µM, first compound 0.00999 µM) 78.6% | viability, T/C [31] 27.2%
47.1 nM: IC50 (second compound 0.316 µM)
53.3 nM: IC50 (second compound 1 µM)
47.7 nM: IC50 (second compound 3.16 µM)

O=C(NO)c1cnc(N2CCN(S(=O)(=O)c3ccc4ccccc4c3)CC2)nc1 + CN(C)c1ccc(Nc2c3ccc(NC(=O)CCN4CCCC4)cc3nc3cc(NC(=O)CCN4CCCC4)ccc23)cc1
170 nM: IC50 (second compound 3.16 µM)
189 nM: IC50 (second compound 0.316 µM)
active: viability, T/C [3] 5.47% | viability, T/C [4] 0.25% | viability, T/C [5] 0.18% | viability, T/C [6] 0.2% | viability, T/C [9] 4.32% | viability, T/C [10] 0.23% | viability, T/C [11] 0.12% | viability, T/C [12] 0.17% | viability, T/C [15] 5.37% | viability, T/C [16] 0.23% | viability, T/C [17] 0.11% | viability, T/C [18] 0.15% | viability, T/C [21] 4.41% | viability, T/C [22] 0.21% | viability, T/C [23] 0.1% | viability, T/C [24] 0.13% | viability, T/C [27] 4.33% | viability, T/C [28] 0.21% | viability, T/C [29] 0.12% | viability, T/C [30] 0.15% | viability, T/C [33] 2.02% | viability, T/C [34] 0.23% | viability, T/C [35] 0.19% | viability, T/C [36] 0.19%
82.8 nM: IC50 (second compound 10 µM)
inactive: viability, T/C [1] 107% | viability, T/C [2] 91.7% | viability, T/C [7] 116% | viability, T/C [8] 101% | viability, T/C [13] 98.8% | viability, T/C [14] 111% | viability, T/C [19] 103% | viability, T/C [20] 99.4% | viability, T/C [25] 110% | viability, T/C [26] 89.4% | viability, T/C [31] 102% | viability, T/C [32] 39.8%
174 nM: IC50 (second compound 0.0316 µM)
182 nM: IC50 (second compound 1 µM)
184 nM: IC50 (second compound 0.1 µM)
